Experimental findings from US7705203B2, “Benzoate inductible promoters” (Purdue Research Foundation, priority 2002, dated 2010) are described below.

Structures are written as SMILES.

For one assay, the system named is BRE. The assay can be described thus: Activation of BRE fused to GFP in fungal protoplasts (surface receptor test). In kind it is cell-based. On the procedure:
While not necessary to understand to practice the invention, a more complicated mechanism of induction may include a surface receptor that binds to benzoate and which then initiates either some kind of signal transduction cascade or the release of a TF that then culminates in the activation of the BPH promoter (FIGS. 12C and D). The hypothesis of a surface receptor was tested by using the p-NH2-benzoate coupled to agarose (as described above) as a non-cleavable external probe. Fungal protoplasts containing the BRE fused to GFP were then prepared, and activation of the BRE (production of the GFP marker) by addition of the agarose-immobilized benzoate derivative to the fungal protoplasts was scored. […] In order to investigate whether the disparity of size between the larger agarose beads and fungal protoplasts may have caused steric problems in binding of the inducer, smaller ligands still incapable of uptake are constructed and utilized to confirm a non-membrane surface location.
The hypothesis of a surface receptor was tested by using the p-NH2-benzoate coupled to agarose (as described above) as a non-cleavable external probe. Fungal protoplasts containing the BRE fused to GFP were then prepared, and activation of the BRE (production of the GFP marker) by addition of the agarose-immobilized benzoate derivative to the fungal protoplasts was scored. […]

For the next assay, the system named is bzuA. Briefly: RNA blots of bzuA expression. Conditions: benzoic acid in the media. Type of assay: cell-based, A. nidulans. An excerpt:
On the other hand, while N. crassa also contains a bphA homolog, there is no current information available as to its response to benzoic acid.

Another assay has as its system bphA gene. Briefly: RNA (Northern) blot of bphA gene transcription in mycelia. In kind it is cell-based, Aspergillus niger. The method, then:
The time course gene expression induction was examined by analyzing total RNA at different times after adding benzoic acid. Northern (RNA) blots were carried out using total RNA extracted from mycelia grown for different periods of time in the presence of benzoic acid. Initially, the fungus was inoculated in CM medium (Pontecorvo (1953) Adv. Genet. 5: 141-238) for 24 hours, transferred to benzoate-containing medium (0.1% w/v) for different times, and total RNA was extracted using the Rneasy Plant Total RNA kit (Qiagen Inc, Valencia, Calif.) according to the manufacturer's instructions. Total RNA was resolved on a formaldehyde-agarose gel and transferred to a Hybond-N nylon membrane (Amersham Life Sci. Inc, Arlington Heights, Ill.). Radiolabeled BPH probe was allowed to hybridize to the membrane, as described above. Northern blot methods were also carried out as recommended (Amersham).
Different benzoate concentrations and inducers were used to better characterize the inducibility of the bphA gene. Gene expression was assayed by Northern blots. Benzoate 4-hydroxylase activity is also assessed by enzymatic assays to confirm the inducibility at the transcriptional level described by Van Gorcom et al. ((1990) Mol. Gen. Genet. 223, 192-197). Inducibility is also verified by reverse transcription of mRNAs produced under induction conditions.
To verify the inducibility of the bphA gene by benzoic acid, A. niger was inoculated in complete medium and grown for 24 hours before being transferred to fresh medium containing 0.1% benzoic acid. Mycelia were harvested after different periods of induction, and total RNA was extracted.

Turning to `O=C(O)c1ccccc1` [benzoic acid], the “GFP fluorescence in the BRE-GFP transformed line” value in the assay on BRE was “induced GFP fluorescence”. In addition, the “expression of bzuA” value in the assay on bzuA is “upregulated”. In addition, the “induction of transcription of the bphA gene” value with bphA gene (8 mM inducer, RNA blot (FIG. 4)) is listed as “induced”. Moreover, in the assay on bphA gene (concentration curves), the “benzoic acid concentrations as low as ... induce transcription of the bphA gene” value is given as 0.8 mM.
